Data as given in patent publication US20080132458A1, “Hypoxia-Activated Anti-Cancer Agents” (Threshold Pharmaceuticals, Inc., priority 2004, published 2008).

Test system: CD1 Mice
Experiment: toxicity in healthy mice: weight loss after a single intravenous dose, observed for seven days
Type: in vivo, mouse
Conditions: single 20 mg/kg dose intravenously
Description: CD1 Mice were injected intravenously with a single 20 mg/kg dose each of compounds 2a, 2b, daunorubicin, and vehicle and observed for seven days, before euthanization. […] Thus, compounds of the invention appear to be less toxic than Daunorubicin when administered to healthy mice.

SMILES	weight loss as compared with the control group
COc1cccc2c1C(=O)c1c(O)c3c(c(O)c1C2=O)C[C@@](O)(C(C)=O)C[C@@H]3O[C@H]1CC2[C@H](OCOCN2C(=O)OCc2cnc([N+](=O)[O-])n2C)[C@H](C)O1 (stereo partly drawn) [Compound 2a]	did not undergo significant weight loss
COc1cccc2c1C(=O)c1c(O)c3c(c(O)c1C2=O)C[C@@](O)(C(C)=O)C[C@@H]3O[C@H]1CC2[C@H](OCOCN2C(=O)OCc2ncc([N+](=O)[O-])n2C)[C@H](C)O1 (stereo partly drawn) [Compound 2b]	did not undergo significant weight loss
COc1cccc2c1C(=O)c1c(O)c3c(c(O)c1C2=O)C[C@@](O)(C(C)=O)C[C@@H]3O[C@H]1C[C@H](N)[C@H](O)[C@H](C)O1 [Daunorubicin, reference compound]	Significant weight loss
